Key:
[1] = test system: Cabbage Looper (Trichoplusia ni); experiment: Bioassays on CL, 128-well diet tray assay; assay type: in vivo; conditions: Trichoplusia ni, 168 h; 50 μg/cm^2 on artificial diet, second instar larvae, five to seven days; read-out: CL % Control (or Mortality) rating
Method: Bioassays on CL were conducted using a 128-well diet tray assay.
One to five second instar CL larvae were placed in each well (3 mL) of the diet tray that had been previously filled with 1 mL of artificial diet to which 50 μg/cm^2 of the test molecule (dissolved in 50 μL of 90:10 acetone-water mixture) had been applied (to each of eight wells) and then allowed to dry. Trays were covered with a clear self-adhesive cover and held at 25° C., 14:10 light-dark for five to seven days. Percent mortality was recorded for the larvae in each well; activity in the eight wells was then averaged. The results are indicated in the table entitled “Table ABC: Biological Results” (See Table Section).
(§1) Bioassays on BAW and CL were conducted according to the procedures outlined in Example A: Bioassays on Beet Armyworm (“BAW”) and Cabbage Looper (“CL”) using the indicated concentrations.

[2] = test system: Beet Armyworm (Spodoptera exigua); experiment: Bioassays on BAW, 128-well diet tray assay; assay type: in vivo; conditions: Spodoptera exigua, 168 h; 50 μg/cm^2 on artificial diet, second instar larvae, five to seven days; read-out: BAW % Control (or Mortality) rating
Method: Bioassays on BAW were conducted using a 128-well diet tray assay. One to five second instar BAW larvae were placed in each well (3 mL) of the diet tray that had been previously filled with 1 mL of artificial diet to which 50 μg/cm^2 of the test molecule (dissolved in 50 μL of 90:10 acetone-water mixture) had been applied (to each of eight wells) and then allowed to dry. Trays were covered with a clear self-adhesive cover and held at 25° C., 14:10 light-dark for five to seven days. Percent mortality was recorded for the larvae in each well; activity in the eight wells was then averaged. The results are indicated in the table entitled “Table ABC: Biological Results” (See Table Section).
as §1

Row | Structure (SMILES) | mortality at 50 µg/cm2 [1] [%] | mortality at 50 µg/cm2 [2] [%]
1 | CCO/C(=C\C(c1cc(Cl)c(Cl)c(Cl)c1)C(F)(F)F)c1ccc(C(=O)N[C@H](C)C[S+]([O-])CC(F)(F)F)c(C(F)(F)F)c1 (stereo partly drawn) [F30, 4-((Z)-1-ethoxy-4,4,4-trifluoro-3-(3,4,5-trichlorophenyl)but-1-en-1-yl)-N-((2R)-1-((2,2,2-trifluoroethyl)sulfinyl)propan-2-yl)-2-(trifluoromethyl)benzamide] | 50 to 100 | 50 to 100
2 | CO/C(=C\C(c1cc(Cl)c(Cl)c(Cl)c1)C(F)(F)F)c1ccc(C(=O)N[C@H](C)CSCC(F)(F)F)c(C(F)(F)F)c1 (stereo partly drawn) [F31, 4-((Z)-4,4,4-Trifluoro-1-methoxy-3-(3,4,5-trichlorophenyl)but-1-en-1-yl)-N—((R)-1-((2,2,2-trifluoroethyl)thio)propan-2-yl)-2-(trifluoromethyl)benzamide] | 50 to 100 | 50 to 100
3 | C[C@H](CSCC(F)(F)F)NC(=O)c1ccc(/C=C/C(c2cc(Cl)c(Cl)c(Cl)c2)C(F)(F)F)cc1C(F)F (stereo partly drawn) [F32, 2-(Difluoromethyl)-4-((E)-4,4,4-trifluoro-3-(3,4,5-trichlorophenyl)but-1-en-1-yl)-N—((R)-1-((2,2,2-trifluoroethyl)thio)propan-2-yl)benzamide] | 50 to 100 | 50 to 100
4 | CCO/C(=C/C(c1cc(Cl)c(Cl)c(Cl)c1)C(F)(F)F)c1ccc(C(=O)N[C@H](C)CSCC(F)(F)F)c(C(F)(F)F)c1 (stereo partly drawn) [F33, 4-((E)-1-ethoxy-4,4,4-trifluoro-3-(3,4,5-trichlorophenyl)but-1-en-1-yl)-N—((R)-1-((2,2,2-trifluoroethyl)thio)propan-2-yl)-2-(trifluoromethyl)benzamide] | 50 to 100 | 50 to 100
5 | C[C@H](CS(=O)(=O)CC(F)(F)F)NC(=O)c1ccc(/C=C/C(c2cc(Cl)c(Cl)c(Cl)c2)C(F)(F)F)cc1C(F)F (stereo partly drawn) [F43, 2-(Difluoromethyl)-4-((E)-4,4,4-trifluoro-3-(3,4,5-trichlorophenyl)but-1-en-1-yl)-N—((R)-1-((2,2,2-trifluoroethyl)sulfonyl)propan-2-yl)benzamide] | 50 to 100 | 50 to 100
6 | CC(C)(C[S+]([O-])CC(F)(F)F)NC(=O)c1ccc(/C=C/C(c2cc(Cl)c(Cl)c(Cl)c2)C(F)(F)F)cc1C(F)(F)F (stereo not drawn) [F47, (E)-N-(2-Methyl-1-((2,2,2-trifluoroethyl)sulfinyl)propan-2-yl)-4-(4,4,4-trifluoro-3-(3,4,5-trichlorophenyl)but-1-en-1-yl)-2-(trifluoromethyl)benzamide] | 50 to 100 | 50 to 100
7 | CCc1cc(/C=C/C(c2cc(Cl)c(Cl)c(Cl)c2)C(F)(F)F)ccc1C(=O)N[C@H](C)C[S+]([O-])CC(F)(F)F (stereo partly drawn) [F55, 2-Ethyl-4-((E)-4,4,4-trifluoro-3-(3,4,5-trichlorophenyl)but-1-en-1-yl)-N-((2R)-1-((2,2,2-trifluoroethyl)sulfinyl)propan-2-yl)benzamide] | 50 to 100 | 50 to 100
8 | C[C@H](CSCC(F)(F)F)NC(=O)c1ccc(/C=C/C(c2cc(Cl)c3c(c2)OCO3)C(F)(F)F)cc1C(F)(F)F (stereo partly drawn) [F75, 4-((E)-3-(7-Chlorobenzo[d][1,3]dioxol-5-yl)-4,4,4-trifluorobut-1-en-1-yl)-N—((R)-1-((2,2,2-trifluoroethyl)thio)propan-2-yl)-2-(trifluoromethyl)benzamide] | 50 to 100 | 50 to 100
9 | C[C@H](CS(=O)(=O)CC(F)(F)F)NC(=O)c1ccc(/C=C/C(c2cc(Cl)c3c(c2)OCO3)C(F)(F)F)cc1C(F)(F)F (stereo partly drawn) [F76, 4-((E)-3-(7-Chlorobenzo[d][1,3]dioxol-5-yl)-4,4,4-trifluorobut-1-en-1-yl)-N—((R)-1-((2,2,2-trifluoroethyl)sulfonyl)propan-2-yl)-2-(trifluoromethyl)benzamide] | 50 to 100 | 50 to 100
